Data set [1] deals with D3 embryonic stem (ES) cells, neurons. Kind of data set: Cell culture model for chemical ischemia and neuroprotection (calcium imaging). Type of data set: cell-based, mice. On the procedure: For all experiments, D3 embryonic stem (ES) cells derived from 129/sv mice [Okabe et al., 1996] were cultivated for 12 days, with passages on days 2, 4, 7 and 9 as described previously [Sommer et al., 2004]. Insult conditions: Cells (24-well plates) were pre-incubated with or without 20 nM EPO in fresh medium for 24 hours at 37° C. Cells were rinsed once with low K^+ solution (140 mM NaCl, 4.7 mM KCl, 1.2 mM KH2PO4, 2.5 mM CaCl2, 1.2 mM MgSO4, 11 mM glucose, 15 mM Hepes-NaOH, pH 7.35). Cells (either with or without EPO pre-incubation) were incubated for up to 45 min (37° C.) with either low K^+ solution or with glucose-free low K^+ solution supplemented with 1 mM KCN (chemical ischemia solution [Kume et al., 2002]). Vitality control to asses numbers of surviving neurons was performed by a brief stimulation with a low dose of glutamate (10 μM). Afterwards, cells were washed three times with ice cold phosphate buffered saline (PBS), and then proteins were harvested. Suspended cells were pelleted at 500×G, and lysed into 9M urea 4% CHAPS. The cell lysate was desalted with a NAP-10 column (Amersham Biosciences), preequilibrated with the same buffer, and protein content was determined.
Functional tests by calcium imaging were performed essentially as described [Sommer et al., 2004]. Briefly, cells were loaded with 2 μM of […] in DMEM for 45 min at 37° C. in the dark. Measurements of relative changes in [Ca^2+] were made on an inverted epifluorescence microscope (Olympus IX70 S1F2) with a Polychrom IV Monochromator (Xe-lamp, USHIO). Excitation wavelengths (λ1, λ2) and the emission wavelength were 340, 380 and 510 nm, respectively. Acquisition and analysis of data after appropriate stimulation were performed by using MetaFluor software (Universal Imaging Corporation). Image resolution was 168×129 pixels (binning 8×8, pixel size 6.8×6.8 μm). Only cells identified as neurons by morphological criteria and occasional immunostaining (not shown) and those whose calcium levels returned to the resting state after the first stimulation were taken into account. Controls included nominal zero calcium (negative) and 5 μM ionomycin (positive), 10 μM glutamate (positive) and depolarisation (55 mM K+) (positive). Pharmacological agents were applied by a multi-valve, single-output focal drug application device (ALA Scientific) with the perfusion system DAD-12. […] During each stimulation event 20 image pairs were acquired.

Data set [2] concerns the target T1, PARP-1 (Homo sapiens, UniProt P09874).
T1 construct: purchased R&D Systems TA4669
Kind of data set: PARP inhibition assay (R&D Systems, Cat. No. TA4669). In kind it is biochemical. The note with it: for IC50: R&D assay, recombinant monomeric PARP-1, read-out: IC50 PARP-1 inhibition. The source says:
A PARP inhibition assay from R&D Systems was used (Cat. No. TA4669) according to instructions of the supplier.
Under cellular conditions PARP-1 poly-ADP-ribosylates a host of nuclear proteins, including topoisomerase 1, 14-3-3 g and PARP-1 itself. Thus under cellular conditions, the self-modification of PARP-1 and dimerization are regulating its activity, moreover there is a tight interplay with PARG (poly-ADP-ribosyl-glycohydroxylase).

Data set [3] has as its system 3T3 fibroblasts. Description: LPS challenge, cell survival by Trypan Blue. The note with it: LPS 100 ng/ml for 60 min. In kind it is cell-based. On the procedure:
(§1) Cell pellets were further investigated by Western blot staining with anti Cox-2 and anti iNOS antibodies of 1D polyacrylamide gels.
(§2) Cell survival was assessed by Trypan Blue staining.

The test system of data set [4] is A 549 cells. Description: LPS challenge, cell survival by Trypan Blue. Type of data set: cell-based. The note with it: LPS 100 ng/ml for 60 min. On the procedure:
as §1, §2

The subject of data set [5] is undifferentiated V56 embryonic stem cells. Kind of data set: LPS challenge, cell survival by Trypan Blue. Type of data set: cell-based. The note with it: LPS 100 ng/ml for 60 min. On the procedure:
as §1, §2

Data set [6] relates to neurally differentiated V56 embryonic stem cells. Kind of data set: LPS challenge, cell survival by Trypan Blue. In kind it is cell-based. The note with it: LPS 100 ng/ml for 60 min. On the procedure: as §1, §2
Data set [7] has as its system iNOS and Cox-2. Description: Cox-2 and iNOS expression after LPS challenge (Western blot). The following applies: LPS 100 ng/ml for 60 min. Type of data set: cell-based. On the procedure:
as §1, §2
(In general: Immunoblotting shows a protein as a band on a membrane.)

Data set [8] in a line: Blood-brain-barrier passage: HPLC of plasma and CSF. The note with it: rat, in vivo. The source says:
J. Gastroenterol. 66, 35ff.; Homon et al., 1987, Therapeutic Drug Monitoring 9, 236ff.).

Data set [9] deals with T2, SIR-2 (Mus musculus, UniProt Q923E4).
T2 construct: Using a raw extract from murine embryonic stem cells; host or cells: murine embryonic stem cells (raw extract)
T2 sequence (Q923E4 2-737 limits assumed): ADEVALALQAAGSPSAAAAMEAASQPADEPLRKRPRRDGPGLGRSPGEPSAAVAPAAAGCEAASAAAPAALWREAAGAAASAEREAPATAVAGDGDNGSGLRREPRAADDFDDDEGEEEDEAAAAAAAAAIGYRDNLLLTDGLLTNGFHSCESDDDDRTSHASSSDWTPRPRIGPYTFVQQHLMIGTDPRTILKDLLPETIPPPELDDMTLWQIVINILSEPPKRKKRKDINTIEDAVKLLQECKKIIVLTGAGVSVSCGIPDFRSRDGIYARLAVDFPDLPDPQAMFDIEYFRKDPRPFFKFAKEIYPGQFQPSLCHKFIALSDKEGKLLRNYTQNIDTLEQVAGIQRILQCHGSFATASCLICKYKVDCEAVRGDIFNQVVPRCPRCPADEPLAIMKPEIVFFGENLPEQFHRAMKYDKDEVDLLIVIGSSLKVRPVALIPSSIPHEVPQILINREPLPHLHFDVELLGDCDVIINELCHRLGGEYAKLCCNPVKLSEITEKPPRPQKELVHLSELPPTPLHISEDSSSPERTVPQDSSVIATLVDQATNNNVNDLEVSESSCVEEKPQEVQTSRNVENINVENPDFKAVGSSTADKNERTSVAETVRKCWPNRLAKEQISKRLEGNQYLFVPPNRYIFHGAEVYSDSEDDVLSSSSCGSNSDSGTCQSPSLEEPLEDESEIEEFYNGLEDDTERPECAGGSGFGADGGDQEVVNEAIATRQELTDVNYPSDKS
Kind of data set: SIR2 activity assay (CycLex SIR2 Assay kit). The following applies: control; read-out: IC50 SIR-2 inhibition. Type of data set: biochemical, murine. The source says: For measurements of SIR2 activities, the quantitative test kit for NAD-dependent histone deacetylase activity CycLex® SIR2 Assay kit (Cat# CY-1151) was used according to instructions of manufacturer (CycLex Co., Ltd. 1063-103 Ohara, Tera-Sawaoka Ina, Nagano 396-0002 Japan). All substances tested in the SIR assay were cross-checked for their influence on the lysyl-endopeptidase. For this control an already deacetylated substrate peptide was used in order to measure directly lysyl-endopeptidase activity.
For measurements of SIR2 activities, the quantitative test kit for NAD-dependent histone deacetylase activity CycLex® SIR2 Assay kit (Cat# CY-1151) was used according to instructions of manufacturer (CycLex Co., Ltd. 1063-103 Ohara, Tera-Sawaoka Ina, Nagano 396-0002 Japan).

In data set [10] the target is T3, SIR-2 (Mus musculus, UniProt Q923E4).
T3 construct: endogenous in cells; host or cells: V56 / D3 embryonic stem cells, raw extract
T3 sequence (Q923E4 1-737): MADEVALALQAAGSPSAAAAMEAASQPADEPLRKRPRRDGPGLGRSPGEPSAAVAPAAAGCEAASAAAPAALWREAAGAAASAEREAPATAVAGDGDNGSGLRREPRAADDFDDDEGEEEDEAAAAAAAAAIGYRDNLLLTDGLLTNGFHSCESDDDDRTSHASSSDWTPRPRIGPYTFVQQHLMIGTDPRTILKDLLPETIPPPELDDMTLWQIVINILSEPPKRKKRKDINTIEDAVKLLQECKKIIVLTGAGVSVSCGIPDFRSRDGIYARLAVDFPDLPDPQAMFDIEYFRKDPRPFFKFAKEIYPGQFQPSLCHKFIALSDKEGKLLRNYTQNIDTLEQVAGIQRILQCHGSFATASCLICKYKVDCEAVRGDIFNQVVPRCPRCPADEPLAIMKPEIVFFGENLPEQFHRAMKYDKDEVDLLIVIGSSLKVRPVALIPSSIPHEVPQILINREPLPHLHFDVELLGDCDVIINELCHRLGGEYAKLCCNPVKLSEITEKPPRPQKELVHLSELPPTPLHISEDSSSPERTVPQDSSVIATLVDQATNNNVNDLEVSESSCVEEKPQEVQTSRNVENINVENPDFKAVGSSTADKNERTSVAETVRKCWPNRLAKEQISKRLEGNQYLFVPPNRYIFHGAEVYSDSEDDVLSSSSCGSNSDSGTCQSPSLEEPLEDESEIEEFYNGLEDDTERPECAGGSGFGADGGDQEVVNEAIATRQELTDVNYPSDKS
Description: Affinity enrichment with irreversible pirenzepine affinity tag. In kind it is binding. An excerpt: (§3) A reactive —SCN group is introduced which binds to lysines in or near the binding site of the compound. A biotinylated linker serves for enrichment of bound protein. The synthesis is described in detail co-pending US-application 60/588,354 and 60/620,323 which are herein incorporated by reference. In FIG. 1 a synthesis scheme is depcited. The final product, which was used as affinity reagent is thiocyanato 11-[2-(4-biocytinyl-piperazin-1-yl)-acetyl]-5,11-dihydro-benzo[e]pyrido[3,2-b][1,4]diazepin-6-one, (11).
(§4) The affinity reagent 11 was used to bind the target covalently from fractionations of crude cell extracts of D3 ES cells and other cell lines, subsequently the affinity purified material was analysed by 1D PAGE, immunostaining, and mass spectrometry.
For SIR-2 staining the following antibodies were used: primary Ab: A-SiR 2 (Upstate, biomol 07-131; Lot:22073); 1:5000 in 5% BSA/1×TBST; secondary Ab: A-Rabbit PE(A-0545) 1:1000 in 5% BSA/1×TBST: […]

In data set [11] the test system is PARP-1. The data set is described as above. In kind it is binding, mice.
Sequence of PARP-1 (P11103 215-1013 limits assumed): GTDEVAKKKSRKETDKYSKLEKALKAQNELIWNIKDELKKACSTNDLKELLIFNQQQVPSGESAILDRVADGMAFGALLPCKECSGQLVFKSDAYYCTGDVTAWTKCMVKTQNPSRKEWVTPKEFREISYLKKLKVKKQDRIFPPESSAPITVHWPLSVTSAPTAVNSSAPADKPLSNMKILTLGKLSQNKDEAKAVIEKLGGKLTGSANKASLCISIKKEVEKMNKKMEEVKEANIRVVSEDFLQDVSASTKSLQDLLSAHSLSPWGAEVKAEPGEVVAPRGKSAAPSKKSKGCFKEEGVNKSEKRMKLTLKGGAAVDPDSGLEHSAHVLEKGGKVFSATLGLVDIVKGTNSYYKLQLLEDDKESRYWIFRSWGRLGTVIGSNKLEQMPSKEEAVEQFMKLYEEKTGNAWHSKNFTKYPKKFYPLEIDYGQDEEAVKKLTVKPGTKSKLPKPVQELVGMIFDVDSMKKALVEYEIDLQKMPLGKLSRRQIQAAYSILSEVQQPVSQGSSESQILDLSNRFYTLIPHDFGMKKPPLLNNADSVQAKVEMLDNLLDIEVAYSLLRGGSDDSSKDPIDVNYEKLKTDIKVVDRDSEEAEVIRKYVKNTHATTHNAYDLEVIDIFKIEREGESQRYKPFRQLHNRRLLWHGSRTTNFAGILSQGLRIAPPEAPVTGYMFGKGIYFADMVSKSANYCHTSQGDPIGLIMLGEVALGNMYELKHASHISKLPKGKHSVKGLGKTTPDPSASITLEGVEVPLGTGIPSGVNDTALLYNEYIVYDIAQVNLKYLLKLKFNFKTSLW
Text: as §3, §4
The subsequent fractionation, isolation and further analysis was performed according to published standard procedures (Sommer et al. 2004). A commercial anti-PARP antibody was used for staining Western blots. Mass spectrometry for independent identification of pirenzepine-tagged proteins was performed as described elsewhere recently (Vogt et al., 2003, Cahill et al., 2003).
A surplus of affinity tag was removed by NAP10 gel filtration. The reaction mixture was bound to streptavidin agarose. Elution occurred with elution buffer (2% SDS, 62.5 mM Tris-pH 6.8) for 10 min at room temperature and 10 min at 95° C. […]

Like-named read-outs stand apart in the source and are kept apart here.

T1 sequence (P09874 whole entry): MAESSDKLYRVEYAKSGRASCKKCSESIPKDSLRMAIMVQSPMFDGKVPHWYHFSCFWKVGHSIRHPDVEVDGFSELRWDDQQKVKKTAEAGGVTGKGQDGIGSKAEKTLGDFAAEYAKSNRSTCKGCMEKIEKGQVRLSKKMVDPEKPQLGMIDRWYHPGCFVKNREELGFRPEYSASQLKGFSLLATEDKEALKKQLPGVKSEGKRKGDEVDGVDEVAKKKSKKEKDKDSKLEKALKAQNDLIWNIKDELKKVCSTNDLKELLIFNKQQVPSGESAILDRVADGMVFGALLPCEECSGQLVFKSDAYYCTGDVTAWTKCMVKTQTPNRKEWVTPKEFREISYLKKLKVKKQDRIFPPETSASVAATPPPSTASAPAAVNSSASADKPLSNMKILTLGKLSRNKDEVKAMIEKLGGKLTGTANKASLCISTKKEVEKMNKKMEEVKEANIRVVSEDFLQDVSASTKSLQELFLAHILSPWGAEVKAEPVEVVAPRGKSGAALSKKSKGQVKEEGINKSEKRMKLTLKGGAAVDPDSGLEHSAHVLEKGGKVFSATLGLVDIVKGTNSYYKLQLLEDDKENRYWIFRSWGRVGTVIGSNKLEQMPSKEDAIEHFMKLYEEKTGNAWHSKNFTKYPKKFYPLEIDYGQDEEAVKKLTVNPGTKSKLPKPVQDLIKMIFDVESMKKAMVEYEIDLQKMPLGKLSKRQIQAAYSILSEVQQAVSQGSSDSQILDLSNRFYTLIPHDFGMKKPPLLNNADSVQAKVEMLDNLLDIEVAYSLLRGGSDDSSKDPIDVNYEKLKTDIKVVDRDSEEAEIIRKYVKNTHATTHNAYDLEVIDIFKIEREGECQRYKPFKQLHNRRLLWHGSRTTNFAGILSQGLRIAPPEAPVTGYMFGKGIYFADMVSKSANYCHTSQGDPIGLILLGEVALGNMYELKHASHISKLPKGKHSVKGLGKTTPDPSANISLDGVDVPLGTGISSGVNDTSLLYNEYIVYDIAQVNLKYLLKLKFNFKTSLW

Turning to `CN1CCN(CC(=O)N2c3ccccc3C(=O)Nc3cccnc32)CC1` [Pirenzepine, 5,11-dihydro-11[(4-methyl-1-piperazinyl)-acetyl]-6H-pyrido-[2,3-b]-[1,4]benzodiazepine-6-one, reference compound], the “neuroprotective in vitro effect” value in [1] (1 μM, chemical ischemia) was “prevents neuronal death”. The survival rate in data set [1] (after chemical ischemia, 1 μM Pirenzepine (FIG. 2b)) amounted to 72.1±4.4%. The “neuroprotective effect under raft-disrupting conditions” value in data set [1] (β-methyl-cyclodextrin or filipin) was “does not occur”. In data set [2], the “PARP-1 inhibition (in words)” value is “rather weak PARP-1 inhibitor”. In addition, the IC50 (usually the concentration at which inhibition is half-maximal) in data set [2] worked out at 200 µM. The “protection from LPS challenge” value in data set [3], in data set [4], in data set [5] and in data set [6] was “protect” throughout. Further, in data set [7], the “expression of inducible inflammatory markers iNOS and Cox-2” value is given as “decreased expression”.

For `O=C1Nc2cccnc2N(C(=O)CN2CCNCC2)c2ccccc21` [dm-Pirenzepine, desmethyl-Pirenzepine], the “passage into the brain” value in [8] is recorded as “virtually no passage”.

As to `NC(=O)c1cccnc1` [nicotine amide, reference compound], the IC50 in [9] was roughly 55 µM.

In the case of `O=c1[nH]c2ccccc2c2ccccc12` [phenanthridone, reference compound], in data set [2], the IC50 was determined as 7 µM.

On to “thiocyanato 11-[2-(4-biocytinyl-piperazin-1-yl)-acetyl]-5,11-dihydro-benzo[e]pyrido[3,2-b][1,4]diazepin-6-one [pirenzepine-affinity tag]”, for which the “binding to SIR-2” value was “irreversibly binds” in [10] and “interacts” in data set [10] (listed as affinity tag). Besides, the “interaction with PARP-1” value in [11] was “interacts”.

Values taken from US8039464B2, “Muscarinic antagonists with PARP and SIR modulating activity as agents for inflammatory diseases” (ProteoSys AG, priority 2004, dated 2011).
